Data set [1] is described as follows: Intestinal administration of insulin with peptide (ileal loop) to rats. The data set is classed as in vivo. The conditions noted are these: Example 8, insulin 50 IU/kg with 0.5 mM peptide, male SD rat, FIG. 10. On the procedure:
A silicone tube was […] cm distant from the ileocecal junction toward the ileum, and a feeding needle was inserted at a position about 10 cm upward therefrom. Further, sutures were passed through an area of 6 cm between these. From the feeding needle, 20 ml of phosphate buffered saline (PBS) at pH 7.4 prewarmed to 37° C. was fed at a flow rate of 5 ml/min. to allow discharging of the contents, and the silicone tube was plugged, followed by administering 1 ml of PBS prewarmed to 37° C. from the feeding needle and keeping it retained for 30 minutes. After the administration, the feeding needle was quickly plugged and the intestinal tract was returned into the abdominal cavity, followed by closing the site of incision with a clip and allowing the rat to keep still. […] The rat during the experiment was fixed on its back on a hot plate kept at 37° C. by a hot-water circulating pump to regulate the body temperature. […] Also for rats to which the same quantity of the insulin solution alone was subcutaneously administered, the blood collection and the measurement were carried out in the same manner.

A short description of data set [2]: Intranasal administration of interferon β with peptide to rats (plasma interferon β level). The conditions noted are these: Example 6, interferon β 0.18×10^6 IU/kg alone or with 0.5 mM peptide, FIG. 7.
The next data set concerns nasal cavity. Nature of the data set: Evaluation of damage to nasal cavity (LDH leakage into washing solution). The conditions noted are these: Example 9; mixed solution of peptide and insulin, intranasal, washing 15 minutes later, FIG. 11.
A short description of data set [3]: Intranasal administration of exendin-4 with peptide to rats (plasma exendin-4 level). The conditions noted are these: Example 7, exendin-4 0.25 mg/kg alone or with 0.5 mM peptide, FIG. 8.
Data set [4] is described as follows: Intranasal administration of insulin with peptide to rats (blood glucose, plasma insulin, bioavailability, AUC). The conditions noted are these: Example 4, insulin 1 IU/kg alone or mixed with 0.5 mM peptide (L-body), male SD rat, FIG. 5.
The test system of data set [5] is HeLa cells. Nature of the data set: Evaluation of promotion of transfer of polystyrene beads into cells. The data set is classed as cell-based. The conditions noted are these: Example 3, beads alone or with peptide 1 μM, 3 hours, FIG. 3. Here is the method: In DMEM medium supplemented with 10% FBS, 0.2 ml of HeLa cells were plated on a 96-well glass bottom plate, and the cells were cultured at 37° C. for 48 to 72 hours to allow the cells to adhere to the bottom surface. After 3 times of washing with 200 μl of PBS, 50 μl of DMEM medium containing each of the peptides of SEQ ID NOs:1 to 6 labeled with fluorescein at the amino terminus (contract synthesis by Sigma-Genosys) at a final concentration of 1 μM, fluorescent polystyrene beads (Fluorospheres Carboxylated Microbeads, 0.1 μm; manufactured by Molecular probes, Inc.) at a final concentration of 1 μl/well and 10% FBS was added to each well. The plate was incubated in a CO2 incubator for 3 hours and then washed 3 times with DMEM medium supplemented with 10% FBS, followed by addition of 50 μl of a lysis solution (10 mM Tris-HCl, 5 mM EDTA, 100 mM NaCl, 1% SDS, 100 μg/ml proteinase K) and 1 hour of incubation at room temperature, to decompose the cells. The whole lysis solution was recovered, and the amount of fluorescent polystyrene beads incorporated into the cells was measured using a fluorescence intensity measuring apparatus at an excitation wavelength of 580 nm and a fluorescence wavelength of 605 nm.

The subject of data set [6] is HeLa cells. Nature of the data set: Evaluation of promotion of insulin transfer into cells (rhodamine-labeled insulin incorporated, fluorescence intensity of lysate). Type of data set: cell-based. The conditions noted are these: for incorporation of rhodamine-labeled insulin into the cells (in words): Example 2, rhodamine-labeled human insulin 100 μg/ml alone or with peptide, 3 hours, FIG. 2. Here is the method:
In DMEM medium supplemented with 10% FBS, 0.2 ml of HeLa cells were plated on a 96-well glass bottom plate, and the cells were cultured at 37° C. for 48 to 72 hours to allow the cells to adhere to the bottom surface.
(§1) The rhodamine-labeled insulin was prepared by the following method. […] To the resulting solution, 4 mg of NHS-rhodamine (Pierce) dissolved in 0.5 ml of DMSO was added, and the reaction was allowed to proceed at room temperature overnight.
(§2) Further, the amount of fluorescein incorporated into the cells was measured by the same method as in Example 1.

For data set [7], the system named is HeLa cells. Description: Localization of rhodamine-labeled insulin in HeLa cells by confocal laser microscope. The conditions noted are these: Example 2, peptide added together with rhodamine-labeled insulin, FIG. 12. The data set is classed as cell-based. Here is the method:
as §1

In data set [8] the test system is HeLa cells. Description: Evaluation of peptide permeability into cells (fluorescein-labeled peptide incorporated into HeLa cells). Type of data set: cell-based. Here is the method:
In DMEM medium supplemented with 10% FBS, 0.2 ml of HeLa cells were plated on a 96-well glass bottom plate, and the cells were cultured at 37° C. for 48 to 72 hours to allow the cells to adhere to the bottom surface. After 3 times of washing with 200 μl of PBS, 50 μl of DMEM medium containing each of the peptides of SEQ ID NOs:1 to 6 labeled with fluorescein at the amino terminus (contract synthesis by Sigma-Genosys) at a final concentration of 5 μM and FBS at a final concentration of 10% was added to each well. The plate was incubated in a CO2 incubator for 3 hours and then washed 3 times with DMEM medium supplemented with 10% FBS, followed by addition of 50 μl of a lysis solution (10 mM Tris-HCl, 5 mM EDTA, 100 mM NaCl, 1% SDS, 100 μg/ml proteinase K) and 1 hour of incubation at room temperature, to decompose the cells and the peptides incorporated into the cells. The whole lysis solution was recovered, and the amount of fluorescein incorporated into the cells was measured using a fluorescence intensity measuring apparatus (HORIBA FLUOROMAX-3) at an excitation wavelength of 494 nm and a fluorescence wavelength of 512 nm.
as §2

For data set [9] the following is noted: rat, in vivo, 0.25 mg/kg.

Like-named read-outs stand apart in the source and are kept apart here. Ends that are not written are not given here.

As for KWFRIQMQIKKWRNRR [SEQ ID NO:4], in data set [1], the “blood insulin level after intestinal administration, compared to insulin alone” value is “evident increase”. For the same substance, in [2], the “plasma interferon β level after intranasal administration” value is “transfer of interferon β into the blood from immediately after the administration”.
With “RWFKIQMQIRRWKNKK [SEQ ID NO:1, R W F K I Q M Q I R R W K N K K]”, the “blood insulin level after intestinal administration, compared to insulin alone” value in data set [1] was “evident increase”. The “release of LDH from the nasal cavity, compared to 5% (w/v) sodium taurodeoxycholate” value with nasal cavity was “significantly lower”. Moreover, the “plasma exendin-4 level after intranasal administration” value in data set [3] was “transfer of exendin-4 into the blood from immediately after the administration”. In data set [4], the “blood insulin level after intranasal administration” value is recorded as “transfer of insulin into the blood was observed from immediately after the administration”. In addition, the “plasma interferon β level after intranasal administration” value in [2] is “transfer of interferon β into the blood from immediately after the administration”.
With “SEQ ID NO:6: Random peptide, cell membrane non-permeable; sequence not printed (EYDLSTAGGAAAC; Synthetic peptide random peptide)”, the “incorporation of fluorescent polystyrene beads into the cells (in words)” value in the data set with HeLa cells [5] is recorded as “almost no incorporation”. Moreover, the “incorporation of rhodamine-labeled insulin into the cells (in words)” value with HeLa cells [6] was “almost no incorporation”. For the same substance, in the data set on HeLa cells [6] (Example 12, fluorescein-labeled peptides added together with rhodamine-labeled insulin, incubation 5 hours, FIG. 16), the “rhodamine-labeled insulin incorporated into the cells, of the amount added” value is listed as “about 0.2%”. Besides, the “permeation of rhodamine-labeled insulin into the cells, confocal laser microscope” value with HeLa cells [7] is “did not allow permeation”. In addition, the “incorporation of fluorescein-labeled peptide into the cells (in words)” value in the data set with HeLa cells [8] (Example 1, fluorescein-labeled peptide 5 μM, 3 hours, FIG. 1) is given as “hardly incorporated into the cells”. Also, the “fluorescein incorporated into the cells, of the fluorescein added” value with HeLa cells [8] (Example 12, fluorescein-labeled peptides, incubation 5 hours, FIG. 15) was “about 0.2%”.
For exendin-4, the “plasma exendin-4 level after intranasal administration” value in data set [9] is given as “almost no increase”.
As to “rhodamine-labeled insulin: human insulin reacted with NHS-rhodamine (Pierce); fluorescent probe, added alone”, the “incorporation of rhodamine-labeled insulin into the cells (in words)” value with HeLa cells [6] was “almost no incorporation”.

These data come from patent US8772449B2, “Cell-penetrating peptides” (Toray Industries, Inc., priority 2009, dated 2014).
